Entries after “also recorded” stand apart in the source; their conditions may differ. Where two headings read alike, the source gives them in different places.
Experiments:
[1] = target: VLA-4 (a4b1) (Homo sapiens (Human), UniProt P05556+P13612); test: sVCAM flow cytometry cell-based assay (inhibition of soluble VCAM-1 binding to G2 ALL cells);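 also: compounds at 0.1 to 1000 nM preincubated 30 min with G2 ALL cells, then VCAM/Fc added for 30 min, bound VCAM-1 detected by PE secondary antibody, percent binding cells by flow cytometry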
[2] = test system: hematopoietic stem/progenitor cells (HSPCs); test: HSPC mobilization into peripheral blood, colony forming unit (CFU) assay; details: mice
[3] = as listed in TABLE 6, read-out: sVCAM IC50
[4] = inhibition of sVCAM-1 binding to human G2 ALL cells (TABLE 3), read-out: SVCAM-1, IC50
[5] = single s.c. injection, peripheral blood, 0.25 hr post dose (TABLE 6)
[6] = single s.c. injection, peripheral blood, 2 hr post dose (TABLE 6)
[7] = single s.c. injection, peripheral blood, 4 hr post dose (TABLE 6)

Chain of VLA-4 (a4b1) (P13612 34-1032): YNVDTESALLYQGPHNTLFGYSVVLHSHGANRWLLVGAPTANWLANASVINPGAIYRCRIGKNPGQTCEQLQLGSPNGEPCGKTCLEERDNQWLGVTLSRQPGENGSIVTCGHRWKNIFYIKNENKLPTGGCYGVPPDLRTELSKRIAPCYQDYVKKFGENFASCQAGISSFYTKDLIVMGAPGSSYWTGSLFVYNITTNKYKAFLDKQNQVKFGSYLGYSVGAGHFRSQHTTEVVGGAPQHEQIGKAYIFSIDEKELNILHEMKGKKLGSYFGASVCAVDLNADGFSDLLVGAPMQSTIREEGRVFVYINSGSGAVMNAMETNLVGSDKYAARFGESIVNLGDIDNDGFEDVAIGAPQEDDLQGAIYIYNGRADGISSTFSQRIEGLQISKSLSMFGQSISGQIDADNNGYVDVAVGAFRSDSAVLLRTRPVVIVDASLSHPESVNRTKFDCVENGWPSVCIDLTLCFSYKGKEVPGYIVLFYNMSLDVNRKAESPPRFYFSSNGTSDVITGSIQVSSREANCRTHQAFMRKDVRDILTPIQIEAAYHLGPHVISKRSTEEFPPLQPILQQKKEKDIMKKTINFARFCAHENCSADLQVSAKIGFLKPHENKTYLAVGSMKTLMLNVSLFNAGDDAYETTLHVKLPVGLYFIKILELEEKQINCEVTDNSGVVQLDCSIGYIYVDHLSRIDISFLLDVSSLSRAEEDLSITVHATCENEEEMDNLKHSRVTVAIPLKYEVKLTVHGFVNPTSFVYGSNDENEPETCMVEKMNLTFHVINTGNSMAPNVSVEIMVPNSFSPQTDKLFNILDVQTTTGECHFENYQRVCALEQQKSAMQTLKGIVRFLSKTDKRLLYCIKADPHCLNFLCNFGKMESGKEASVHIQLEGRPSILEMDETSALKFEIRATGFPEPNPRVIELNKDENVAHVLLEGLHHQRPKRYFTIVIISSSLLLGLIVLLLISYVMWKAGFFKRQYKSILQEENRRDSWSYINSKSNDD
Chain of VLA-4 (a4b1) (P05556 21-798): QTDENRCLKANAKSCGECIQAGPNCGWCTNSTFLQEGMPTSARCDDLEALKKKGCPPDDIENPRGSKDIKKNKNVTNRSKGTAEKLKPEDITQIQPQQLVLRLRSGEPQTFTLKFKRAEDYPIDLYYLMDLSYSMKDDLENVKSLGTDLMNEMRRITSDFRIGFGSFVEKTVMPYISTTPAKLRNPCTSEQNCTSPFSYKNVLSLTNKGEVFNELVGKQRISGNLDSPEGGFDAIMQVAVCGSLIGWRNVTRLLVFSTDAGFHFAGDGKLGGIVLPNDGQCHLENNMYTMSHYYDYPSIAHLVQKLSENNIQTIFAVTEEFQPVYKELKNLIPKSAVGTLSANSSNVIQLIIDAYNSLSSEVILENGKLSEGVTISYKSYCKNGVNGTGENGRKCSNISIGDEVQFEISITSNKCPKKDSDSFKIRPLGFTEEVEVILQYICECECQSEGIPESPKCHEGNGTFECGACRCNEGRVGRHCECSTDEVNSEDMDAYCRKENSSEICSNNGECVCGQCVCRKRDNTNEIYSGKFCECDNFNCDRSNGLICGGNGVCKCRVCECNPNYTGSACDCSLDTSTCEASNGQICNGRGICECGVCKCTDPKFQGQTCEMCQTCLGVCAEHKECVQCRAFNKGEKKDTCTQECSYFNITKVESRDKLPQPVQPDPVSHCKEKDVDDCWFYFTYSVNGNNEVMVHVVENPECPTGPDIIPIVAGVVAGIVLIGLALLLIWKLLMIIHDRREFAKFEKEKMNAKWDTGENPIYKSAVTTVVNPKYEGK

SMILES	IC50 [1, 3] [nM]	IC50 [1, 4] [nM]	No. CFU (×10^3)/mL ± SD, 0.25 hr [2, 5]	No. CFU (×10^3)/mL ± SD, 2 hr [2, 6]	No. CFU (×10^3)/mL ± SD, 4 hr [2, 7]	HSPC mobilization, result in words ([2]; single dose)	further results
COCCOCCOCCOCCOCCOCCOCCOCCOCCOCCOCCOCCOCCOCCOCCOCCOCCOCCOCCOCCOCCOCCOCCOCCn1cc(COCc2cc(OC)c(-c3ccc(C[C@H](NC(=O)[C@@H]4CCCN4S(=O)(=O)c4cc(Cl)cc(Cl)c4)C(=O)O)cc3)c(OC)c2)nn1 [Example C9, (S)-3-(4′-(((1-(2,5,8,11,14,17,20,23,26,29,32,35,38,41,44,47,50,53,56,59,62,65,68,71-tetracosaoxatriheptacontan-73-yl)-1H-1,2,3-triazol-4-yl)methoxy)methyl)-2′,6′-dimethoxy-[1,1′-biphenyl]-4-yl)-2-((S)-1-((3,5-dichlorophenyl)sulfonyl)pyrrolidine-2-carboxamido)propanoic Acid]		0.579				returning to baseline by 4 hours; also recorded: inferior mobilization at 4 hours compared to Example 3	IC50 ([1]; as listed in TABLE 8, read-out: sVCAM IC50): 0.579 nM; No. CFU (×10^3)/mL ± SD, 0.25 hr ([2]; single dose, peripheral blood, 0.25 hr post dose (TABLE 8)): 3.72 ± 1.18 (×10^3)/mL; No. CFU (×10^3)/mL ± SD, 2 hr ([2]; single dose, peripheral blood, 2 hr post dose (TABLE 8)): 3.09 ± 1.06 (×10^3)/mL; No. CFU (×10^3)/mL ± SD, 4 hr ([2]; single dose, peripheral blood, 4 hr post dose (TABLE 8)): 0.57 ± 0.28 (×10^3)/mL
CCOCc1cc(OC)c(-c2ccc(C[C@H](NC(=O)c3c(F)cccc3F)C(=O)O)cc2)c(OC)c1 [Firategrast, firategrast]							No. CFU (×10^3)/mL ± SD, 1 hr ([2]; single dose, peripheral blood, 1 hr post dose (TABLE 20)): 0.34 ± 0.12 (×10^3)/mL; No. CFU (×10^3)/mL ± SD, 4 hr ([2]; single dose, peripheral blood, 4 hr post dose (TABLE 20)): 0.24 ± 0.14 (×10^3)/mL; No. CFU (×10^3)/mL ± SD, 8 hr ([2]; single dose, peripheral blood, 8 hr post dose (TABLE 20)): 0.24 ± 0.14 (×10^3)/mL
c1cc(CN2CCCNCCNCCCNCC2)ccc1CN1CCCNCCNCCCNCC1 [Plerixafor, plerixafor]							No. CFU (x10^3)/mL ± SD, 4 hr ([2]; single dose alone or in combination with Plerixafor (5 mg/kg s.c.), peripheral blood, 4 hr (TABLE 15)): 1.25 ± 0.30 (x10^3)/mL; No. CFU (x10^3)/mL ± SD, 6 hr ([2]; single dose alone or in combination with Plerixafor (5 mg/kg s.c.), peripheral blood, 6 hr (TABLE 15)): 0.28 ± 0.12 (x10^3)/mL; No. CFU (x10^3)/mL ± SD, 24 hr ([2]; single dose alone or in combination with Plerixafor (5 mg/kg s.c.), peripheral blood, 24 hr (TABLE 15)): 0.22 ± 0.08 (x10^3)/mL

Further molecules by falling IC50 [1, 4], results first:

IC50 [1, 3] [nM]	IC50 [1, 4] [nM]	SMILES	No. CFU (×10^3)/mL ± SD, 0.25 hr [2, 5]	No. CFU (×10^3)/mL ± SD, 2 hr [2, 6]	No. CFU (×10^3)/mL ± SD, 4 hr [2, 7]	HSPC mobilization, result in words ([2]; single dose)	further results
3.59	3.59	COc1cccc(OC)c1-c1ccc(C[C@H](NC(=O)[C@]2(C)CCCN2S(=O)(=O)c2cc(Cl)cc(Cl)c2)C(=O)O)cc1 [Example C5]	2.78 ± 0.48 (×10^3)/mL	1.38 ± 0.53 (×10^3)/mL	0.31 ± 0.09 (×10^3)/mL		
0.445	0.445	CCOCc1cc(OC)c(-c2ccc(C[C@H](NC(=O)[C@@H]3CCCN3S(=O)(=O)c3cc(Cl)cc(Cl)c3)C(=O)O)cc2)c(OC)c1 [Example C6]	2.58 ± 0.65 (×10^3)/mL	2.12 ± 0.70 (×10^3)/mL	0.46 ± 0.20 (×10^3)/mL		
0.199	0.199	COc1cc(CO)cc(OC)c1-c1ccc(C[C@H](NC(=O)[C@@H]2CCCN2S(=O)(=O)c2cc(Cl)cc(Cl)c2)C(=O)O)cc1 [Example C8]	2.74 ± 0.69 (×10^3)/mL	2.10 ± 0.85 (×10^3)/mL	0.42 ± 0.15 (×10^3)/mL	have returned to baseline	IC50 ([1]; as listed in TABLE 7, read-out: sVCAM IC50): 0.199 nM; No. CFU (×10^3)/mL ± SD, 0.5 hr ([2]; single dose, peripheral blood, 0.5 hr post dose (TABLE 7)): 0.85 ± 0.30 (×10^3)/mL; No. CFU (×10^3)/mL ± SD, 2 hr ([2]; single dose, peripheral blood, 2 hr post dose (TABLE 7)): 0.87 ± 0.30 (×10^3)/mL; No. CFU (×10^3)/mL ± SD, 4 hr ([2]; single dose, peripheral blood, 4 hr post dose (TABLE 7)): 0.27 ± 0.36 (×10^3)/mL
0.194	0.194	COCCOCCOCCOCc1cc(OC)c(-c2ccc(C[C@H](NC(=O)[C@@H]3CCCN3S(=O)(=O)c3cc(Cl)cc(Cl)c3)C(=O)O)cc2)c(OC)c1 [Example C7]	2.57 ± 0.62 (×10^3)/mL	2.52 ± 0.37 (×10^3)/mL	0.50 ± 0.18 (×10^3)/mL	returning to baseline by 4 hours and clearly at baseline by 6 hours	IC50 ([1]; as listed in TABLE 9, read-out: sVCAM IC50): 0.194 nM; No. CFU (×10^3)/mL ± SD, 2 hr ([2]; single dose, peripheral blood, 2 hr post dose (TABLE 9)): 2.65 ± 1.39 (×10^3)/mL; No. CFU (×10^3)/mL ± SD, 4 hr ([2]; single dose, peripheral blood, 4 hr post dose (TABLE 9)): 0.44 ± 0.17 (×10^3)/mL; No. CFU (×10^3)/mL ± SD, 6 hr ([2]; single dose, peripheral blood, 6 hr post dose (TABLE 9)): 0.11 ± 0.08 (×10^3)/mL

Source: patent US20250381168A1, “VLA4 INHIBITORS AND USES THEREOF” (Washington University, priority 2022, published 2025)
